Assay results as given in patent US20080260817A1, “Compositions for the Treatment of Inflammation and Pain Using a Combination of a Cox-2 Selective Inhibitor and a Ltb4 Receptor Antagonist” (priority 2004, published 2008).

Key:
Type in all cases: in vivo
[1] = test system: zymosan-stimulated air pouch, cells infiltrated per pouch; assay: Murine air pouch model, 2 hour zymosan; details: Table 7 (FIG. 1); female Balb/c mice; PO BID from day 5; pouch lavage 2 hours after 1% zymosan on day 7; 30 mpk COX-2 Inhibitor, 300mpk LTB4 RA, alone or combined
Protocol: In the present invention, the anti-inflammatory effects of COX-2 inhibitors and LTB4 inhibitors, both alone and together, can be evaluated using the mouse air pouch model (see Example 1 and FIG. 1). Following the addition of a COX-2 inhibitor, or an LTB4 inhibitor, or both, to a zymosan-stimulated air pouch, results may be reported as the number of cells that have infiltrated per pouch as an indicator of inflammation.
Female Balb/c mice age 8-12 weeks are injected with approximately 5 milliliters of air subcutaneous using a 10 milliliter syringe with a 27-gauge needle and a 0.2 micron acrodisc filter. The animals are anesthetized with CO2/O2 mix, and then the air injection is made subcutaneously in the intrascapular region of the mouse. Animals' pouches are reinflated every 2-3 days with approximately 2-3 milliliters of air, same as above. Dosing of each compound, including Vehicle (0.5% Methylcellulose+0.025% Tween 80) or a COX-2 inhibitor (compound C-1, 15 mpk, BID), or an LTB4 receptor antagonist (compound L-2, 150 mpk, BID), or the COX-2 inhibitor combined with the LTB4 receptor antagonist (compound C-1, 30 mpk+compound L-2 150 mpk BID), starting on day 5 at 6 am. Compounds are given orally (PO) and dosed BID in a volume of 0.2 milliliters per/dose. […] Total cells/mouse is calculated using a coulter counter. […]

[2] = test system: collagen-induced arthritis in male DBA/1 mice; assay: Collagen-induced arthritis in mice (incidence, severity, weight); details: Table 4 (FIG. 2); evaluated day 56; treated from day 21; compound C-1 15 mpk bid, compound L-2 150 mpk bid, alone or combined
[3] = test system: collagen-induced arthritis in male DBA/1 mice; assay: as above; details: for Weight: in g (unit assumed); for % Incidence: individual inhibitors in the comparison experiment
Protocol: Arthritis is induced in 8-12 week old male DBA/1 mice by injection of 50 micrograms of chick type II collagen (CII) in complete Freunds adjuvant (Sigma) on day 0 at the base of the tail as described in J. Stuart, Annual Rev. Immunol., 2, 199 (1984). Compounds are prepared as a suspension in 0.5% methylcelluose (Sigma, St. Louis, Mo.), 0.025% Tween 20 (Sigma). The COX-2 inhibitors (Example 1 and 2) and LTB4 receptor antagonist (Example 3) are administered alone or a COX-2 inhibitor and an LTB4 receptor antagonist in combination. The compounds are administered in non-arthritic animals by gavage in a volume of 0.1 mL beginning on day 20 post collagen injection and continuing daily until final evaluation on day 55. Animals are boosted on day 21 with 50 micrograms of collagen (CII) in incomplete Freunds adjuvant. The animals are subsequently evaluated several times each week for incidence and severity of arthritis until day 56. Any animal with paw redness or swelling is counted as arthritic. Scoring of severity is carried out using a score of 0-3 for each paw (maximal score of 12/mouse) as described in P. Wooley, et al., Trans. Proc., 15, 180 (1983). The animals are measured for incidence of arthritis and severity in the animals where arthritis is observed. The incidence of arthritis is determined at a gross level by observing the swelling or redness in the paw or digits. Severity is measured with the following guidelines. Briefly, animals displaying four normal paws, i.e., no redness or swelling are scored 0. Any redness or swelling of digits or the paw is scored as 1. Gross swelling of the whole paw or deformity is scored as 2. Ankylosis of joints is scored as 3.
Eight- to twelve-week old male DBA/1 mice were injected at the base of the tail with 50 micrograms of chick type II collagen in CFA. 21 days later, animals were boosted with 50 micrograms chick type II collagen in IFA. […] On day 56 animals were evaluated for arthritis. Any animals displaying inflammation in the paw were included as positive for incidence. In addition, paw swelling was graded on a standard scale of 0-3/paw (total score of 12/animal).

[4] = Table 4 (FIG. 2), C-1 15 mpk bid, L-2 150 mpk bid, alone or combined
[5] = Table 4 (FIG. 2), day 56, paw swelling graded 0-3/paw, total score of 12/animal, C-1 15 mpk bid, L-2 150 mpk bid, alone or combined
[6] = Table 6 (FIG. 4), doses not given
[7] = Table 6 (FIG. 4), score 0-3/paw, total 12/animal, doses not given

SMILES | Total Cells/Mouse [1] | % Incidence [2] | Weight [3, 4] | Severity [3, 5] | Weight [3, 6] | % Incidence [3, 6] | Severity [3, 7]
Cc1ccc(-c2cc(C(F)(F)F)nn2-c2ccc(S(N)(=O)=O)cc2)cc1 [COX-2 Inhib., celecoxib] | 40600000 | 100% | 24.66 | 5.1 | 24.66 | 100% | 5.1
O=C(O)C1(c2ccc3c(c2)OCC(Cc2ccc(-c4ccccc4)cc2)[C@H]3O)CCCC1 (stereo partly drawn) [LTB4 ra, 1-[3-([1,1′-biphenyl]-4-ylmethyl)-3,4-dihydro-4-hydroxy-2H-1-benzopyran-7-yl]-cyclopentanecarboxylic acid, (3S-trans)] | 38900000 | 90% | 26.77 | 2.7 | 26.77 | 90% | 2.7
